Data taken from PubChem BioAssay (NCI).
Values joined by “and” are separate entries in the source; they are usually repeats but may differ in a detail not shown here. Equal entries are not always repeated.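 Assay format: 96-well plates, 48-hour exposure. GI50 = concentration required for 50% inhibition of growth. TGI marks complete inhibition of growth.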

Columns and labels:
Test in all cases: inhibition of tumour cell growth, NCI panel, 48 h
[1] = tested on: COLO 205 colon
[2] = tested on: UACC-62 melanoma
[3] = tested on: HL-60(TB) leukemia
[4] = tested on: NCI-H226 lung
[5] = tested on: SK-MEL-28 melanoma
[6] = tested on: SF-268 CNS
[7] = tested on: A549 NSCLC
[8] = tested on: 786-0 renal
[9] = tested on: RPMI-8226 leukemia
[10] = tested on: OVCAR-4 ovarian

Structure (SMILES) | GI50 [1] | TGI [1] [µM] | GI50 [2] | TGI [2] | GI50 [3] | TGI [3] | GI50 [4] | TGI [4] | GI50 [5] | TGI [5] | GI50 [6] | TGI [6] | GI50 [7] | TGI [7] | GI50 [8] | TGI [8] | GI50 [9] | TGI [9] | GI50 [10] | TGI [10]
Cc1nc2sccn2c1/C=C1/C(=O)Nc2ccccc21 | 3.11 µM | > 45.9 | 2.52 µM | 21.2 µM | 2.1 µM | 7.25 µM | 23.9 µM | > 100 µM | > 28.5 µM | > 100 µM | 52 µM | > 100 µM | 7.65 µM | > 100 µM | 15.1 µM | > 100 µM | 7.16 µM | > 100 µM | > 29.6 µM | > 100 µM
CC(C)=CCN=C(N)N |  | > 100 |  | > 100 µM |  | > 100 µM |  | > 100 µM |  | > 100 µM |  | > 100 µM |  | > 100 µM |  | > 100 µM |  | 99.7 µM |  | > 100 µM
COc1c2c(c3c(c1C1OC(C)[C@@H](C)O1)CC(C)(C)O3)C(=O)c1ccccc1C2=O (some centres undefined) |  | > 100 |  | > 100 µM |  | 31.6 µM |  | > 100 µM |  | > 100 µM |  | > 100 µM |  | > 100 µM |  | > 100 µM |  | 52.2 µM |  | > 100 µM
COc1ccc(-c2[nH]ncc2-c2cc3c(c(OC)c2)OCC(=O)N3)cc1 | 0.465 µM | 12.8 | 0.621 µM | 20.8 µM | 0.352 µM | 2.06 µM | 1.66 µM | 41.5 µM | 5.19 µM | > 100 µM | 0.935 µM | > 100 µM | 1.44 µM | > 100 µM | 1.21 µM | > 100 µM | 0.796 µM | 18.9 µM | 2.91 µM | 77.9 µM
CN1CCN(c2ccc(C(=O)Nc3n[nH]c4ccc(Cc5cc(F)cc(F)c5)cc34)c(NC3CCOCC3)c2)CC1 | 1.48 µM | 3.1 | 1.52 µM and 1.6 µM | 3.03 µM and 3.1 µM | 1.83 µM and 1.66 µM | 4.19 µM and 3.38 µM | 1.47 µM and 1.36 µM | > 10 µM and 3.11 µM | 1.6 µM and 1.58 µM | 3.15 µM and 2.95 µM | 2.25 µM and 1.45 µM | > 10 µM and 2.87 µM | 2.5 µM and 1.3 µM | > 10 µM and 2.72 µM | 1.41 µM and 1.31 µM | 2.99 µM and 2.62 µM | 2.3 µM and 1.86 µM | 7.02 µM and 4.39 µM | 6.95 µM and 1.45 µM | > 10 µM and 4.09 µM
Cc1c2cc[nH]c(=O)c2c(C)c2c1[nH]c1cc(OCCN3CCN(C)CC3)ccc12 | 0.353 µM | 2.2 | 1.13 µM | 2.9 µM | 1.44 µM | 4.36 µM | 0.503 µM | 2.38 µM | 1.5 µM | 2.98 µM | 0.74 µM | 7.97 µM | 0.452 µM | 1.96 µM | 0.946 µM | 5.09 µM | 1.63 µM | 5 µM | 1.17 µM | 4.82 µM
O=C(O)CSCc1cccc2ccccc12 |  | > 100 |  | > 100 µM |  | > 100 µM |  | > 100 µM |  | > 100 µM |  | > 100 µM |  | > 100 µM |  | > 100 µM |  | > 100 µM |  | > 100 µM
CNC(=O)c1cc(COc2nnc(Nc3ccc(Cl)cc3)c3ccoc23)ccn1 | 20.6 µM and > 10 µM | > 79 | 6.3 µM and > 10 µM | 30.3 µM and > 10 µM | > 100 µM | > 100 µM | 3.01 µM and 8.73 µM | 13.1 µM and > 10 µM | 7.98 µM and > 10 µM | 27.7 µM and > 10 µM | 4.66 µM and > 10 µM | 26.2 µM and > 10 µM | 4.66 µM and > 10 µM | 20.1 µM and > 10 µM | 2.36 µM and > 10 µM | 6.7 µM and > 10 µM | 19.4 µM and > 10 µM | > 82.7 µM | 2.87 µM and 3.16 µM | 11.7 µM and > 10 µM
COc1cc2c(cc1OC)C13CCN4C=C5CCOC6CC(=O)N2C1C6C5CC43 (centres undefined) |  | > 100 |  | > 100 µM |  | > 100 µM |  | > 100 µM |  | > 100 µM |  | > 100 µM |  | > 100 µM |  | > 100 µM |  | > 100 µM |  | > 100 µM
Cc1cc(C)nc(NC(N)=NCCc2ccccc2)n1 | 2.68 µM | 12.5 | 2.97 µM | 21.4 µM | 2.9 µM | 12.4 µM | 5.06 µM | > 100 µM | 3.59 µM | 33.6 µM | 3.4 µM | 41.9 µM | 3.03 µM | 89 µM | 4.86 µM | > 100 µM | 6.45 µM | > 100 µM | 5.35 µM | > 100 µM
CN(C)CCCOc1ccccc1NC1=C(Cl)C(=O)C(Nc2ccccc2OCCCN(C)C)=C(Cl)C1=O | 0.194 µM | 0.399 | 1.58 µM | 3.05 µM | 0.244 µM | 0.656 µM | 1.98 µM | 4.22 µM | 1.72 µM | 3.13 µM | 1.03 µM | 2.61 µM | 1.51 µM | 2.94 µM | 0.661 µM | 1.91 µM | 2.01 µM | 5.07 µM | 0.136 µM | 0.265 µM
C(=Nc1ccccc1)C1CCCC[N-]1.C(=Nc1ccccc1)C1CCCC[N-]1.[Cu+2].[O-][Cl+3]([O-])([O-])O (centres undefined) | 12.8 µM | > 52.2 | 5 µM | 22.8 µM | 6.26 µM | 31.5 µM | 21.6 µM | 50 µM | 20.5 µM | 48.5 µM | 26.9 µM | > 89.6 µM | > 36.8 µM | > 57.1 µM | 13.3 µM | > 58.7 µM | 3.52 µM | 10.9 µM | 26 µM | 84.4 µM
FC(F)(F)C1(Cl)C(c2ccccc2)=C1c1ccccc1 |  | 30.3 |  | 27 µM |  | 24.4 µM |  | 29.2 µM |  | 28.1 µM |  | 30.8 µM |  | 28.9 µM |  | 31.1 µM |  | > 100 µM |  | 26.6 µM
Cc1ccc(C(=O)N(CCCN)[C@@H](c2nc3cc(Cl)ccc3c(=O)n2Cc2ccccc2)C(C)C)cc1 | < 0.01 µM | 1.1 | < 0.01 µM | 1.91 µM and 1.57 µM | < 0.01 µM | 0.482 µM | 0.325 µM | 2.25 µM and 2.5 µM | 1.11 µM and 1.15 µM | 2.5 µM and 2.42 µM |  | 1.97 µM and 2.35 µM | < 0.01 µM | 1.4 µM and 1.71 µM | < 0.01 µM | 2.08 µM and 1.98 µM | < 0.01 µM | 1.72 µM | 1.28 µM and 1.13 µM | 3.54 µM and 2.46 µM
